# Results as given in ChEMBL document CHEMBL4425106, “Uncoupling the Structure-Activity Relationships of β2 Adrenergic Receptor Ligands from Membrane Binding” (J Med Chem, 2016).
# Biological target: Beta-2 adrenergic receptor (Homo sapiens) (UniProt P07550)
# Sequence (P07550 whole entry, looked up): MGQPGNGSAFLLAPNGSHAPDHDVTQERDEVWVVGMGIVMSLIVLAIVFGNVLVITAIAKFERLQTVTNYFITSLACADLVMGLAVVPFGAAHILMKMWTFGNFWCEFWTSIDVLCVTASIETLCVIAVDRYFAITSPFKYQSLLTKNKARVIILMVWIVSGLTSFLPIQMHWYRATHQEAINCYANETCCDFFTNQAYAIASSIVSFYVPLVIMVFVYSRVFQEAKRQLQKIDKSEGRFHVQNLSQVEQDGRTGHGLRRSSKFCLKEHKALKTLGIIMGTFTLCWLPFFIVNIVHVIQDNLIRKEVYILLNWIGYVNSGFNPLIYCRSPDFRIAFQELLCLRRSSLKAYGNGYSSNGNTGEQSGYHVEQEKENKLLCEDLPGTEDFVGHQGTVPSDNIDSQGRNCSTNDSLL
# Description: Binding affinity to inactive/G protein-uncoupled human beta2-AR by immobilized artificial membrane HPLC analysis
smiles,measurement,value
CC(C)(C)NCC(O)COc1cccc2c1CC(O)C(O)C2 (mixture of isomers),log K,1.7
CC(C)(C)NCC(O)COc1cccc2[nH]c(C#N)cc12 (racemic),log K,2.9
